“And” between values parts separate entries of the source, which are not always exact repeats. Identical values can stand only once.

Common to all, as to assay: radiometric filter-binding kinase assay
The target of one experiment is RPS6KA5 KD1 KD2 (human) (UniProt O75582).
For the next experiment, the target named is MAPK13 (human) (UniProt O15264). The conditions noted are these: compound 1.0 µM.
In a further experiment the target is PDPK1 (human) (UniProt O15530). The conditions noted are these: compound 1.0 µM.
In a further experiment the target is EPHB4 (human) (UniProt P54760). The conditions noted are these: compound 1.0 µM.
In another experiment the target is MARK1 (human) (UniProt Q9P0L2). The conditions noted are these: compound 1.0 µM.
The target in a further experiment is MARK4 (human) (UniProt Q96L34). The conditions noted are these: compound 1.0 µM.
The next experiment has as its target GCK (human) (UniProt Q12851). The conditions noted are these: compound 1.0 µM.
A further experiment deals with ZAP70 (human) (UniProt P43403). The note with it: compound 1.0 µM.
Another experiment concerns the target MAP3K1 (human) (UniProt Q13233). The note with it: compound 1.0 µM.
For the next experiment, the target named is HIPK1 (human) (UniProt Q86Z02). The note with it: compound 1.0 µM.
The subject of experiment [1] is PAK2 (human), Q13177 [T402E]. The conditions noted are these: compound 1.0 µM.
The next experiment has as its target EPHB3 (human) (UniProt P54753). The conditions noted are these: compound 1.0 µM.
The next experiment concerns the target STK16 (human) (UniProt O75716). The note with it: compound 1.0 µM.
A further experiment has as its target JAK2 JH1 JH2 (human) (UniProt O60674). The conditions noted are these: compound 1.0 µM.
The next experiment addresses MAP2K6 (human) (UniProt P52564). The conditions noted are these: compound 1.0 µM.
Another experiment concerns the target DAPK1 (human) (UniProt P53355). The conditions noted are these: compound 1.0 µM.
The next experiment has as its target MAP3K7 TAB1 (human) (UniProt Q15750+O43318). The note with it: compound 1.0 µM.
The target of a further experiment is ERBB4 (human) (UniProt Q15303). The note with it: compound 1.0 µM.
A further experiment concerns the target MAP3K5 (human) (UniProt Q99683). The conditions noted are these: compound 1.0 µM.
The next experiment addresses BRSK1 (human) (UniProt Q8TDC3). The conditions noted are these: compound 1.0 µM.
The target of a further experiment is EPHB1 (human) (UniProt P54762). The conditions noted are these: compound 1.0 µM.
The target in a further experiment is NTRK1 (human) (UniProt P04629). The note with it: compound 1.0 µM.
The target of a further experiment is MARK2 (human) (UniProt Q7KZI7). The note with it: compound 1.0 µM.
Another experiment deals with INSR (human) (UniProt P06213). The note with it: compound 1.0 µM.
A further experiment has as its target AURKA (human) (UniProt O14965). The note with it: compound 1.0 µM.
The next experiment deals with IRAK4 (human) (UniProt Q9NWZ3). The note with it: compound 1.0 µM.
Another experiment deals with EPHB2 (human) (UniProt P29323). The note with it: compound 1.0 µM.
The target of a further experiment is MAPK10 (human) (UniProt P53779). The note with it: compound 1.0 µM.
A further experiment deals with MAP2K2 (human) (UniProt P36507). The note with it: compound 1.0 µM.
A further experiment addresses BTK (human) (UniProt Q06187). The conditions noted are these: compound 1.0 µM.
Another experiment has as its target NUAK1 (human) (UniProt O60285). The note with it: compound 1.0 µM.
Another experiment addresses EPHA4 (human) (UniProt P54764). The note with it: compound 1.0 µM.
In the next experiment the target is STK33 (human) (UniProt Q9BYT3). The conditions noted are these: compound 1.0 µM.
Another experiment concerns the target DYRK1A (human) (UniProt Q13627). The note with it: compound 1.0 µM.
A further experiment addresses PTK6 (human) (UniProt Q13882). The note with it: compound 1.0 µM.

MARK4 (human), sequence (Q96L34 whole entry, looked up): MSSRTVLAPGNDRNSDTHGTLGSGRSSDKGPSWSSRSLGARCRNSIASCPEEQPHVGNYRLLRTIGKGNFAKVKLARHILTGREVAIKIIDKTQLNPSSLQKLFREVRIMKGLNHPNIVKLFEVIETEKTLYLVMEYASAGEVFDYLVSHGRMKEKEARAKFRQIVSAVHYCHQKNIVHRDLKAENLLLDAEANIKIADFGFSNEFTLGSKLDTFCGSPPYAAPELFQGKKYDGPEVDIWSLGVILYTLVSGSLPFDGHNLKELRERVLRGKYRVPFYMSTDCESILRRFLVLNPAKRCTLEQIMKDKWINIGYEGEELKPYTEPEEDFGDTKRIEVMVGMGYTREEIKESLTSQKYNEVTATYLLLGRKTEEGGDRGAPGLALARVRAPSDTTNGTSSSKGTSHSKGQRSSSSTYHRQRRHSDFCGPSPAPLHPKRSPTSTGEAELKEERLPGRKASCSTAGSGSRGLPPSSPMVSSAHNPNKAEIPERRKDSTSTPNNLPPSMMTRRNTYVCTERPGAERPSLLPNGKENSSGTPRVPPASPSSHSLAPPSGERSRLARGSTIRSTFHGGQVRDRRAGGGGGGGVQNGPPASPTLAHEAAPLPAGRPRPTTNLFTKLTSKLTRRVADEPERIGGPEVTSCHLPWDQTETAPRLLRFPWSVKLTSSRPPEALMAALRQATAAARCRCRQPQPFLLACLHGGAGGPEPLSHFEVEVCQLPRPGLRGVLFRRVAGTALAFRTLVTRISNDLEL
MAP3K7 TAB1 (human), sequence (O43318 whole entry, looked up): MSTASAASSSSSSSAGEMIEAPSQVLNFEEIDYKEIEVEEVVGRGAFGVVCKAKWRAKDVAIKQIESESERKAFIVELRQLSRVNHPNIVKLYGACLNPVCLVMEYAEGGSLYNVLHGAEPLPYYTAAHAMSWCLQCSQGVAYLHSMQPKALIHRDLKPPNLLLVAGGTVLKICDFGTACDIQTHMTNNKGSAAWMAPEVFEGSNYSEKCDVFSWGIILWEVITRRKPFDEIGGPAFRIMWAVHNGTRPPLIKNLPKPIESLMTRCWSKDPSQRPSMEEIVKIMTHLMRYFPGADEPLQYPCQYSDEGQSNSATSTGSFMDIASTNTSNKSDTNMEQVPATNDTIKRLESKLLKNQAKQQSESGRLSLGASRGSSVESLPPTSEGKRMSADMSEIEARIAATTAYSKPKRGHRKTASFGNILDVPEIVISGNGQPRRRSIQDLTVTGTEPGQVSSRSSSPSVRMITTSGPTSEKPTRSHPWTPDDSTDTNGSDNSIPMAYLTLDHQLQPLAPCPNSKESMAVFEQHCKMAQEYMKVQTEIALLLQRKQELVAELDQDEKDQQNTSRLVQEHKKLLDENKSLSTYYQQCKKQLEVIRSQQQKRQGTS
MAP3K7 TAB1 (human), sequence (Q15750 whole entry, looked up): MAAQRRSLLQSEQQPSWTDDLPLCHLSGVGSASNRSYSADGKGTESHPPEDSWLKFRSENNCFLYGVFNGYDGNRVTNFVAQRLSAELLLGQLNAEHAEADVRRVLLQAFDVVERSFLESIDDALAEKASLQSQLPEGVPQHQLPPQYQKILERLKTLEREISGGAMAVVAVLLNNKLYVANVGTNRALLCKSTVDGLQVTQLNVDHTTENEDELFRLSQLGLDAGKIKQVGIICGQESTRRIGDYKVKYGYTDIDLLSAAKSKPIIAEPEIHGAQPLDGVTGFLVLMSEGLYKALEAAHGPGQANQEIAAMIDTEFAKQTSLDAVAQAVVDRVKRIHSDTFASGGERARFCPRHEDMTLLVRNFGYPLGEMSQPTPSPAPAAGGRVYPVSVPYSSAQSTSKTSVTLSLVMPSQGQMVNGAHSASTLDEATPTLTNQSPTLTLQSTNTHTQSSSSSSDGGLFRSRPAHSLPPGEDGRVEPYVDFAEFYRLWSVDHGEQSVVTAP
EPHB3 (human), sequence (P54753 whole entry, looked up): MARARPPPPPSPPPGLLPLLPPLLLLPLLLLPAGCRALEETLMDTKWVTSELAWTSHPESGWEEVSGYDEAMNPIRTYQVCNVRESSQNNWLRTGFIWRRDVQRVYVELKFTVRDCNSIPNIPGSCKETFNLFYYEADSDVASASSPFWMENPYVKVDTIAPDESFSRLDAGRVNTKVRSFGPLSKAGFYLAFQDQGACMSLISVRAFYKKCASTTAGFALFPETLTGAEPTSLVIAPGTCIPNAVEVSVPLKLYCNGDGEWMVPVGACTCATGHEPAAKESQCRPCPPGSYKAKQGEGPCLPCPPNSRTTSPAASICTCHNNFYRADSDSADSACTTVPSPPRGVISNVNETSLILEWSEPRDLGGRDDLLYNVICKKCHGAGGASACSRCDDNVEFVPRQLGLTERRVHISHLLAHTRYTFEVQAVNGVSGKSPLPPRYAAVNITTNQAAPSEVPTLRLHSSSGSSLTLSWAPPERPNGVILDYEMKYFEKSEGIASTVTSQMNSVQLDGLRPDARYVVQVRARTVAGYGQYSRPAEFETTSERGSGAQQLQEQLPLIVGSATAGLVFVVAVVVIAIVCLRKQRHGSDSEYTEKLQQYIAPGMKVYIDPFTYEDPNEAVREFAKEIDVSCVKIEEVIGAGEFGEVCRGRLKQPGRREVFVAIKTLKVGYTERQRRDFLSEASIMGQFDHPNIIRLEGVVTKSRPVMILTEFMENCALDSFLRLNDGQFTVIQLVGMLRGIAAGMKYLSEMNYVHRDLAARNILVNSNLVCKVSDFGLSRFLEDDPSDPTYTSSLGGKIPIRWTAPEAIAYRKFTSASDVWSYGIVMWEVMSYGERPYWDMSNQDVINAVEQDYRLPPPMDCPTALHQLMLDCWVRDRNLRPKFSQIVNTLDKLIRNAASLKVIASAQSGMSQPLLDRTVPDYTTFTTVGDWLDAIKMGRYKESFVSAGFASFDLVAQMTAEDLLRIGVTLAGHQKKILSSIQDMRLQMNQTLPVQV
DAPK1 (human), sequence (P53355 whole entry, looked up): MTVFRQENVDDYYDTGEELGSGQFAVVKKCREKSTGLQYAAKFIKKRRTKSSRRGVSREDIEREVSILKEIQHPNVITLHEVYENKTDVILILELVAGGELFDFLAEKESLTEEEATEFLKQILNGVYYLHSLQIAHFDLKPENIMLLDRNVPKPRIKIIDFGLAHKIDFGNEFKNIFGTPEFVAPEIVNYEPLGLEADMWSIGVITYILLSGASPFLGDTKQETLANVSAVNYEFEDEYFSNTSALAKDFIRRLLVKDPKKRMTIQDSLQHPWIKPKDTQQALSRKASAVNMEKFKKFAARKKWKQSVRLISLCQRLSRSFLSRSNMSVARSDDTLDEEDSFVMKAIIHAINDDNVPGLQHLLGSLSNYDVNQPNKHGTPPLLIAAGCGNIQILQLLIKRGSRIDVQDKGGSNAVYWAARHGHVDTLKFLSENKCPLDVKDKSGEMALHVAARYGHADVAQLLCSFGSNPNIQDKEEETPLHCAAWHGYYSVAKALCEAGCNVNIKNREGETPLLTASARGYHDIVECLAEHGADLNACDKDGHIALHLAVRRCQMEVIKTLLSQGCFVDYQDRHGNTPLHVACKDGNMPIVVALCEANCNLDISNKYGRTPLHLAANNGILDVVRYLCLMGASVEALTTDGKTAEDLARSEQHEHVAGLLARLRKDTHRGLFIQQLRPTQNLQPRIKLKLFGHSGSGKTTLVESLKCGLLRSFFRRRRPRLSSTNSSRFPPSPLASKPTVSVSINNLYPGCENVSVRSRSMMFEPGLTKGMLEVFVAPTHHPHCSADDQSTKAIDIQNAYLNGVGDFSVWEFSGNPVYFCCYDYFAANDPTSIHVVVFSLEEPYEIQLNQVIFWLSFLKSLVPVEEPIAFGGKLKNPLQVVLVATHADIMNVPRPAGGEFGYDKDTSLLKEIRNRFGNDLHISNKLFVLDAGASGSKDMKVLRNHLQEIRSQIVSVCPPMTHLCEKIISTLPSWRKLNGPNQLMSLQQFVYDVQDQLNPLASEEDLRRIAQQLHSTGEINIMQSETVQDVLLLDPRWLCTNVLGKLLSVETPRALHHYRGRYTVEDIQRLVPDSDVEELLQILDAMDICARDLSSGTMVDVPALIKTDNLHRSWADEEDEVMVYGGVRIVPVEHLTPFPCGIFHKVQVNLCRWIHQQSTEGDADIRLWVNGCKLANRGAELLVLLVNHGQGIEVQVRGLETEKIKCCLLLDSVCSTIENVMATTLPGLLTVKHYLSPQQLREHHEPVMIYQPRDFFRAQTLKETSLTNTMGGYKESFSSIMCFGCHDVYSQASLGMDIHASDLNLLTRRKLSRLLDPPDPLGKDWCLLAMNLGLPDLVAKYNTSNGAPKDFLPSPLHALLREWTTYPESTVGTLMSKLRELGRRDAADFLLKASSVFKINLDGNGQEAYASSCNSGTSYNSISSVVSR
PTK6 (human), sequence (Q13882 whole entry, looked up): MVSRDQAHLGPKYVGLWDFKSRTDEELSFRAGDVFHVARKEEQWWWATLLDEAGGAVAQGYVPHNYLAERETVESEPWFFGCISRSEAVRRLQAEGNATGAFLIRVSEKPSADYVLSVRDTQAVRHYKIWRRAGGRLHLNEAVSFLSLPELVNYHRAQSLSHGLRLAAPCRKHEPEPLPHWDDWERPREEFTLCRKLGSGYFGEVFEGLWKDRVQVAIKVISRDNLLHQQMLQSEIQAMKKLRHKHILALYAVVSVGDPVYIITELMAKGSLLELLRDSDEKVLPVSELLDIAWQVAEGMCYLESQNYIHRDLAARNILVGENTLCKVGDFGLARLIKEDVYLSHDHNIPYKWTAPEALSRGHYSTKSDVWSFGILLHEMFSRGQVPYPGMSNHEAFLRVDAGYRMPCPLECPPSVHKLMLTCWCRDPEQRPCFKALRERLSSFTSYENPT
STK16 (human), sequence (O75716 whole entry, looked up): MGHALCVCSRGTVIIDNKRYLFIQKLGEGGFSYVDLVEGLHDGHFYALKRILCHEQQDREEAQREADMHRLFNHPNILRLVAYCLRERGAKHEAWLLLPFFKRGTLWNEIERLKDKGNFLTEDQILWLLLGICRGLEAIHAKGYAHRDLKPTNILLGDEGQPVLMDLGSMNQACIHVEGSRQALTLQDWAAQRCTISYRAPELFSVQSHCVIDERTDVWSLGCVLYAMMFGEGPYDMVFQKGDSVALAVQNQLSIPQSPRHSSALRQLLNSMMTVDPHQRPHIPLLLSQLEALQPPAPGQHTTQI

For the compound `Oc1ccc2c(c1)C(O)c1cc(O)ccc1-2`, the residual activity on RPS6KA5 KD1 KD2 (human) (compound 20.0 µM) worked out at 85%.

With `COc1ccc2c(c1)[nH]c1c(C)nccc12`, the residual activity was 88% at MAPK13 (human); 99% and 115% at PDPK1 (human); 101% on EPHB4 (human); 88% at MARK1 (human); 89% on MARK4 (human); 68% at GCK (human). The residual activity on ZAP70 (human) was determined as 100%; at MAP3K1 (human) it was 89%; at HIPK1 (human), 119%; in experiment [1], 89%; on EPHB3 (human), 86%; on STK16 (human), 92%. The residual activity at JAK2 JH1 JH2 (human) amounted to 92%; on MAP2K6 (human) it was 95%; on DAPK1 (human) it was 95%; at MAP3K7 TAB1 (human), 95%; at ERBB4 (human), 92%; at MAP3K5 (human), 95%. Also, the residual activity on BRSK1 (human) is 83%; at EPHB1 (human), 103%; on NTRK1 (human) it was 104%; on MARK2 (human), 80%; on INSR (human), 100%; on AURKA (human), 93%. The residual activity on IRAK4 (human) turned out to be 59%; at EPHB2 (human), 136%; at MAPK10 (human), 81%; on MAP2K2 (human), 99%; on BTK (human), 69%; at NUAK1 (human), 96%. Moreover, the residual activity at EPHA4 (human) turned out to be 97%; at STK33 (human), 97%; on DYRK1A (human), 2%; on PTK6 (human), 112%.

As for `Oc1ccc2c(c1)oc1c3ccccc3c(O)cc21`, the residual activity at MAPK13 (human) was 95%; at EPHB4 (human), 103%; at MARK1 (human), 88%; at MARK4 (human), 99%; at GCK (human), 65%; on ZAP70 (human), 90%. Further, the residual activity on RPS6KA5 KD1 KD2 (human) (compound 1.0 µM) stood at 105%; at MAP3K1 (human), 67%; on HIPK1 (human), 74%; in experiment [1], 87%; at EPHB3 (human), 97%; at STK16 (human) it was 85%. Besides, the residual activity on JAK2 JH1 JH2 (human) is 117%; on MAP2K6 (human), 92%; on DAPK1 (human) it was 31%; on MAP3K7 TAB1 (human), 71%; at ERBB4 (human) it was 77%; at MAP3K5 (human), 87%. Also, the residual activity at BRSK1 (human) is 73%; at EPHB1 (human) it was 107%; on NTRK1 (human) it was 107%; at MARK2 (human), 87%; at INSR (human) it was 98%; on AURKA (human), 103%. Also, the residual activity was found to be 75% on IRAK4 (human); 100% at EPHB2 (human); 105% at MAPK10 (human); 102% at MAP2K2 (human); 60% at BTK (human); 88% on NUAK1 (human). The residual activity at EPHA4 (human) is 100%; at STK33 (human) it was 85%; on PTK6 (human), 103%.

The term residual activity denotes the signal under treatment as a percentage of the control signal.

Values taken from the kinase profiling compilation of Christmann-Franck et al. (2016).
